Reference: patent US20150025131A1 (priority 2013, published 2015)
Converted amounts (≈) assume the structure as drawn. “Also recorded” adds a separate entry of the source.

Legend:
[1] = MTT cytotoxicity assay, NIH 3T3; format: cell-based, mouse; conditions: mouse, NIH 3T3 mouse embryo fibroblast cells, 48 h incubation, read-out: Cytotoxicity (IC50 μg/mL) NIH 3T3 cells
Description: (§1) Cell cytotoxicity assay was performed using three different cell lines NIH 3T3 (mouse embryo, fibroblast cells), CC1 (rat, epithelial, liver cell) and MDBK (bovine kidney) cells using MTT (3-[4,5-dimethylthiazole-2-yl]-2,5-diphenyl-tetrazolium bromide) colorimetric assay. Briefly 3T3 were grown in DMEM, supplemented with 10% of fetal bovine serum (FBS), and 1% penicillin-streptomycin whereas CC1 (rat epithelial liver cells) were cultured in EMEM, 2 mM Glutamine, 1% Non-Essential Amino Acids (NEAA), 20 mM HEPES, 10% Foetal Bovine Serum (FBS) and 1% penicillin-streptomycin, and MDBK cells were grown in 10% of fetal bovine serum (FBS) in 75 cm^2 flask, and incubated in 5% CO2 incubator at 37° C. until they attain 70% confluency. Cells were then harvested by centrifuging at 200 g for 5 min at 25° C., counted using heamocytometer and their concentration was adjusted to 6×10^4 cells/mL. 100 μL of Cells were then plated in 96 well plate and incubated overnight. Next day the supernatant was carefully removed and 200 μL of fresh medium was added with three different concentration of compound (1, 10, 50) μg/mL. […] The extent of MTT reduction to formazan within cells was calculated by measuring the absorbance at 540 nm; using a micro plate reader (Spectra Max plus 340, Molecular Devices, Calif., USA). […] The percent inhibition was calculated by using the following formula: […]

[2] = tested on: NIH 3T3 mouse fibroblast cells; experiment: MTT cytotoxicity assay, NIH 3T3; format: cell-based
Description: as §1

[3] = tested on: PHA activated T cells isolated from human peripheral blood; experiment: Thymidine incorporation T cell proliferation assay (PHA activated); format: cell-based; conditions: Homo sapiens, T-cell, 72 h, read-out: Human T cell proliferation (IC50 μg/mL)
Description: Heparinized blood was obtained by vein puncture aseptically from healthy volunteers (25-38 years age). Blood (10 mL) was mixed with incomplete RPMI, layered on 5 mL of Lymphocyte separation medium and centrifuged at 400 g for 20 min at room temperature. Buffy layer was collected and mixed with incomplete RPMI and centrifuged at 4° C. for 10 min at 300 g. Cells were obtained after the RBCs (if any) lysis using hypotonic solution, and washed at 4° C. for 10 min at 300 g. The cells were then suspended in complete RPMI containing 5% FBS and their concentration was adjusted to 2×10^6 cells/mL for T-cell proliferation assay.
Cell proliferation assay was conducted through standard thymidine incorporation technique. Briefly, isolated T-cells from peripheral blood of healthy individuals were plated at a concentration of 2×10^6 cells/mL in a round bottom 96-well tissue culture plates. Cells were stimulated with 7.5 μg/mL of PHA. […] The plate was then incubated for 72 hours at 37° C. in 5% CO2 incubator. After 72 hours, cultures were pulsed with 0.5 μCi/well tritiated thymidine (Amersham Pharmacia Biotech), and further incubated for 18 h. Cells were harvested onto a glass fiber filters using cell harvester (Innotech, Dottikon, Switzerland). The level of the thymidine incorporated into the cells was measured by a liquid scintillation counter (LS 6500, Beckman Coulter, Fullerton, Calif., USA). Results were expressed as mean count per minute (CPM). The inhibitory activity of compounds on T-lymphocyte proliferation was calculated using the following formula: […]

serum peroxide = experiment: Adjuvant induced arthritis model, serum peroxide; format: in vivo, Sprague Dawley rats; conditions: AIA rats, daily intraperitoneal; Patuletin 25 mg/kg, indomethacin 5 mg/kg
Description: (§2) All studies were carried out using Female Sprague Dawley (SD) rats weighing 150-250 gms. Animals were kept at 21±2° C. and on a 12-h light/dark cycle, received standardized pelleted diet and tap water. Experiments were performed under the ethical guidelines of the International Association for the study of pain in conscious animals. Each group contains 12 animals with randomly distributed weights into each treatment group.
Arthritis was induced by injecting freshly prepared 100 μL of 1 mg suspension of lyophilized Mycobacterium tuberculosis H37Ra (MT H37Ra; DIFCO Laboratories, Detroit, Mich., USA), subcutaneously at the rat tail base using sterile hypodermic needle. […]
Peroxide (PO) and nitric oxide (NO), in serum were determined in the serum samples of both the normal and arthritic groups, using quantitative colorimetric assay kits, i.e., the Quantichrom ™ Nitric Oxide Assay Kit, and the Quantichrome™ Peroxide assay kit Diox-250 (BioAssay Systems, Hayward, Calif., USA). […] The samples were analyzed in duplicates using 96-well plate and the plate was read at 540 nm. The Quantichrome™ Peroxide assay kit Diox −250 system is an improved method which utilizes the oxidation of Fe^++ by peroxide present in the analyzed sample resulting in formation of purple complex that gives the accurate measure of peroxide level in the sample when read at 540-610 nm.

serum glutathione = experiment: Adjuvant induced arthritis model, serum glutathione; format: in vivo, Sprague Dawley rats; conditions: AIA rats, daily intraperitoneal; Patuletin 25 mg/kg, indomethacin 5 mg/kg
Description: as §2
Arthritis was induced by injecting freshly prepared 100 μL of 1 mg suspension of lyophilized Mycobacterium tuberculosis H37Ra (MT H37Ra; DIFCO Laboratories, Detroit, Mich., USA), subcutaneously at the rat tail base using sterile hypodermic needle. Inoculation was carried out under anesthesia with a combination of 20 mg/kg ketamine and 5 mg/kg xylazine, injected intraperitoneally. Compound and the reference drug were administered daily, intraperitoneally using sterile syringes. The positive control received vehicle (5% DMSO+PBS) or saline only; treatment groups received test compounds (25 mg/kg), whereas reference group received indomethacin (5 mg/kg). […]
The concentration of reduced form of glutathione was determined in serum using the colorimetric Quantichrome ™ Glutathione assay kit (Bioassay Systems) in duplicates, using 96 well plates and according to manufacturer's instructions. The OD recorded at 412 nm which directly represents the level of glutathione in serum.

[4] = MTT cytotoxicity assay, MDBK; format: cell-based, bovine; conditions: bovine, MDBK bovine kidney cells, 48 h incubation, read-out: Cytotoxicity (IC50 μg/mL) MDBK cells
Description: as §1

COc1c(O)cc2oc(-c3ccc(O)c(O)c3)c(O)c(=O)c2c1O [Patuletin, 3,5,7,3′,4′-pentahydroxy-6-methoxy flavones]
IC50 at 48 h [1]: 36.4 ± 6.9 µg/mL (≈ 110 µM) | cytotoxicity on NIH 3T3 mouse fibroblast cells (in words) [2]: no cytotoxicity | IC50 [3]: 1.2 µg/mL (≈ 3.61 µM) | level of peroxide in serum versus arthritic control group (serum peroxide): decrease; also recorded: non-significant reduction | level of glutathione in serum versus arthritic control group (serum glutathione): non-significant increase; also recorded: mild increase | IC50 at 48 h [4]: 12.6 ± 0.4 µg/mL (≈ 37.9 µM)
